Reference: patent US8129371B2, “Thienopyrimidine and pyrazolopyrimidine compounds and their use as mTOR kinase and PI3 kinase inhibitors” (Wyeth LLC, priority 2007, dated 2012)

What was measured:
[1] = target: T1, Human mTOR (FLAG-TOR) (Homo sapiens, UniProt P42345); assay: Human mTOR kinase assay with purified enzyme, DELFIA format; format: biochemical; settings: purified human mTOR enzyme, DELFIA format
T1 construct: FLAG
Procedure, shortened: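 Purified FLAG-mTOR in HEPES pH 7.4 buffer with 10 mM MnCl2 was preincubated with inhibitor and reacted 2 h at room temperature with His6-S6K substrate, then stopped with EDTA/EGTA. Phospho-T389 S6K detected by DELFIA with Eu-labelled antibody (40 ng/mL) after plate capture; inhibition computed from signal.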

[2] = system: prostate line LNCap; assay: In vitro cell culture growth assay (MTS), LNCap; format: cell-based; settings: Homo sapiens, LNCaP, 72 h, LNCap cells, three days after drug treatment
Procedure, shortened: (§1)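 Cells were plated and, one day later, treated with inhibitors. Three days after treatment, viable cell density was measured by MTS dye conversion, read as absorbance at 490 nm. Effects are expressed as percent of control growth versus vehicle-treated cells on the same plate.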

[3] = target: T2, PI3K (Homo sapiens, UniProt P42336); assay: Fluorescence polarization assay for PI3K; format: biochemical; settings: PI3 Kinase α isoform, fluorescence polarization; read-out: PI3 Kinase α IC50
T2 construct: PI3 Kinase α IC50; other: PI3 Kinase α; other: PI3 Kinase α isoform, fluorescence polarization
Procedure, shortened: (§2)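 PI3K was preincubated with compound (final DMSO 1%), and the reaction was started with PIP2/ATP substrate and run 30–60 min. It was stopped with a detector mix giving 10 nM red probe and 70 nM GST-GRP.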

[4] = target: T3, PI3K (Homo sapiens, UniProt P48736); assay: Fluorescence polarization assay for PI3K; format: biochemical; settings: PI3 Kinase γ isoform, fluorescence polarization; read-out: PI3 Kinase γ IC50
T3 construct: PI3 Kinase γ IC50; other: PI3 Kinase γ; other: PI3 Kinase γ isoform, fluorescence polarization
Procedure, shortened: as §2

[5] = system: breast line MDA468; assay: In vitro cell culture growth assay (MTS), MDA468; format: cell-based; settings: Homo sapiens, 72 h, MDA468 cells, three days after drug treatment
Procedure, shortened: as §1

T3 sequence (P48736 whole entry, canonical isoform): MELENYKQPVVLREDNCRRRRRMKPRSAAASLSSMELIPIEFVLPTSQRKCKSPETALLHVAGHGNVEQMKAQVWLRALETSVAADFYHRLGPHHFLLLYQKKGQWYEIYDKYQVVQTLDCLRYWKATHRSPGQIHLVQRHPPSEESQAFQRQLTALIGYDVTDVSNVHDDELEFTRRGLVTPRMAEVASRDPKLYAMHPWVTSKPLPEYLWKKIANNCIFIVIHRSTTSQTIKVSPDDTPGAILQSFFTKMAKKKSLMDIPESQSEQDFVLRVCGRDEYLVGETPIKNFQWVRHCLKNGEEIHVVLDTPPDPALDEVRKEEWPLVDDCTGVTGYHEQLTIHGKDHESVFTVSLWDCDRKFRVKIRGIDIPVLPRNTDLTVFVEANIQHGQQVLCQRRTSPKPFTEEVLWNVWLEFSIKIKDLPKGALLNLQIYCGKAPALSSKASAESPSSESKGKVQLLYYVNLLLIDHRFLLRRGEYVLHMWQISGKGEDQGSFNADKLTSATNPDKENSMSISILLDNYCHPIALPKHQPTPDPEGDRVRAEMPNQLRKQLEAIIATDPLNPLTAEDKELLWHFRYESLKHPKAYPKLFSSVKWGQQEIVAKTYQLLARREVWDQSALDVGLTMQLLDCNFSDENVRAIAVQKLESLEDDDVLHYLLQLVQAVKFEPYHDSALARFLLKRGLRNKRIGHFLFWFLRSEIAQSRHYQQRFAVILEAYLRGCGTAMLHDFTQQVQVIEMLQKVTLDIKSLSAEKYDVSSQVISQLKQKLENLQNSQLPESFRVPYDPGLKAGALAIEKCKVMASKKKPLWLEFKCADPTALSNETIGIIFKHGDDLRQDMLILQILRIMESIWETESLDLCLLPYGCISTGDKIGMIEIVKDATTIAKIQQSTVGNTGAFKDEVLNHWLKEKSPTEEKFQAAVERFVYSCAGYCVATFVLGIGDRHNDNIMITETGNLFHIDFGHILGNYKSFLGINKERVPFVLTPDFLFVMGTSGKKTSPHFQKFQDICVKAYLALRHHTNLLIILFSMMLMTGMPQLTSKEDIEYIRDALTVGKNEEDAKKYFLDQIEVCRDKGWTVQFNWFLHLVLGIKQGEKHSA
T2 sequence (P42336 whole entry, canonical isoform): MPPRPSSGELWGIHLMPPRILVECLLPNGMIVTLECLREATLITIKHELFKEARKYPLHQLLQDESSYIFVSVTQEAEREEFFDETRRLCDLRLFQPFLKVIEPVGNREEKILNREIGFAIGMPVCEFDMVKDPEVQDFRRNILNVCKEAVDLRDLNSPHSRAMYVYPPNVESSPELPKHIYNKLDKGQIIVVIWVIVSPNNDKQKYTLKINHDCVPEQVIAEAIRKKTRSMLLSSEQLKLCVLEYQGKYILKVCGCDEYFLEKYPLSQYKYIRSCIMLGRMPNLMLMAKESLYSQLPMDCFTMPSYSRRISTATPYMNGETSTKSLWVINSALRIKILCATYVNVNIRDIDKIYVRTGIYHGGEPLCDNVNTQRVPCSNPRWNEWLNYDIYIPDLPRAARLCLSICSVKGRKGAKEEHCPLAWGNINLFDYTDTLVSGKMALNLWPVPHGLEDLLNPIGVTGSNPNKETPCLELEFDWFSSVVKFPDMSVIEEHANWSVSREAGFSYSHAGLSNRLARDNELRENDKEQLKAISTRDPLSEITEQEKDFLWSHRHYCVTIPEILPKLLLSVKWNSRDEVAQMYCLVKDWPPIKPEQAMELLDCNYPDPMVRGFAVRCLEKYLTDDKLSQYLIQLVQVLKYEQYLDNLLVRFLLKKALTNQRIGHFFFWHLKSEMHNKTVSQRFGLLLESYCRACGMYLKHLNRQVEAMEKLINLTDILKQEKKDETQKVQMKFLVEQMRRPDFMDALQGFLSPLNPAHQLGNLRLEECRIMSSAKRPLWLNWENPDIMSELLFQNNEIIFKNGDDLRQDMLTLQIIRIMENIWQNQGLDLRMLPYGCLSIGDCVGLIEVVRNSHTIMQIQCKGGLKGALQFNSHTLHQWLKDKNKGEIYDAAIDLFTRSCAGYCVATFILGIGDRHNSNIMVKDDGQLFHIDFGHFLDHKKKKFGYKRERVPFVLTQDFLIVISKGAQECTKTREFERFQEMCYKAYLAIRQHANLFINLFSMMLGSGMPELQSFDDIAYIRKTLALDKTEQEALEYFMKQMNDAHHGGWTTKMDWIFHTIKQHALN

| Compound | IC50 [1] [nM] | IC50 [2] [nM] | IC50 [3] [nM] | IC50 [4] [nM] | IC50 [5] [nM] |
| --- | --- | --- | --- | --- | --- |
| COCC(COC)n1ncc2c(N3CC4CCC(C3)O4)nc(-c3ccc(NC(=O)Nc4ccc(C(=O)NN(C)C)cc4)cc3)nc21 [Example 336, 1-{4-[(2,2-dimethylhydrazino)carbonyl]phenyl}-3-(4-{1-[2-methoxy-1-(methoxymethyl)ethyl]-4-(8-oxa-3-azabicyclo[3.2.1]oct-3-yl)-1H-pyrazolo[3,4-d]pyrimidin-6-yl}phenyl)urea] | 2.75 | < 1 | 666 | > 10000 | 4 |
| O=C(Nc1ccncc1)Nc1ccc(-c2nc(N3CC4CNCC(C3)O4)c3cnn(CC(F)(F)F)c3n2)cc1 [Example 337, 1-{4-[4-(9-oxa-3,7-diazabicyclo[3.3.1]non-3-yl)-1-(2,2,2-trifluoroethyl)-1H-pyrazolo[3,4-d]pyrimidin-6-yl]phenyl}-3-pyridin-4-ylurea] | 31.5 | 2200 | 1790 | 7930 | 1900 |
| O=CN1CC2CN(c3nc(-c4ccc(NC(=O)Nc5ccncc5)cc4)nc4c3cnn4CC(F)(F)F)CC(C1)O2 [Example 338, 1-{4-[4-(7-formyl-9-oxa-3,7-diazabicyclo[3.3.1]non-3-yl)-1-(2,2,2-trifluoroethyl)-1H-pyrazolo[3,4-d]pyrimidin-6-yl]phenyl}-3-pyridin-4-ylurea] | 787 | 2950 | 9500 | > 10000 | 1870 |
| CC(=O)N1CC2CN(c3nc(-c4ccc(NC(=O)Nc5ccncc5)cc4)nc4c3cnn4CC(F)(F)F)CC(C1)O2 [Example 339, 1-{4-[4-(7-acetyl-9-oxa-3,7-diazabicyclo[3.3.1]non-3-yl)-1-(2,2,2-trifluoroethyl)-1H-pyrazolo[3,4-d]pyrimidin-6-yl]phenyl}-3-pyridin-4-ylurea] | > 6330 | > 60000 | 9420 | > 10000 | > 60000 |
| CC(C)(C)OC(=O)N1CC2CN(c3nc(-c4ccc(NC(=O)Nc5ccncc5)cc4)nc4c3cnn4CC(F)(F)F)CC(C1)O2 [Example 340, tert-butyl 7-[6-{4-[(pyridin-4-ylcarbamoyl)amino]phenyl}-1-(2,2,2-trifluoroethyl)-1H-pyrazolo[3,4-d]pyrimidin-4-yl]-9-oxa-3,7-diazabicyclo[3.3.1]nonane-3-carboxylate] | 305 | 5200 | 5080 | 5760 | 5200 |
| CNC(=O)Nc1ccc(-c2nc(N3C[C@H]4C[C@@H]3CO4)c3cnn(CC(F)(F)F)c3n2)cc1 [Example 341, 1-methyl-3-(4-{4-[(1R,4R)-2-oxa-5-azabicyclo[2.2.1]hept-5-yl]-1-(2,2,2-trifluoroethyl)-1H-pyrazolo[3,4-d]pyrimidin-6-yl}phenyl)urea] | 91 | 2500 | 4630 | > 10000 | 5000 |
| O=C(Nc1ccc(-c2nc(N3C[C@H]4C[C@@H]3CO4)c3cnn(CC(F)(F)F)c3n2)cc1)NC1CC1 [Example 342, 1-cyclopropyl-3-(4-{4-[(1R,4R)-2-oxa-5-azabicyclo[2.2.1]hept-5-yl]-1-(2,2,2-trifluoroethyl)-1H-pyrazolo[3,4-d]pyrimidin-6-yl}phenyl)urea] | 53 | 670 | 9500 | > 10000 | 1000 |
| O=C(Nc1ccc(-c2nc(N3C[C@H]4C[C@@H]3CO4)c3cnn(CC(F)(F)F)c3n2)cc1)OCCO [Example 343, 2-hydroxyethyl (4-{4-[(1R,4R)-2-oxa-5-azabicyclo[2.2.1]hept-5-yl]-1-(2,2,2-trifluoroethyl)-1H-pyrazolo[3,4-d]pyrimidin-6-yl}phenyl)carbamate] | 81 | 1200 | 5170 | > 10000 | 1500 |
| O=C(Nc1ccc(-c2nc(N3C[C@H]4C[C@@H]3CO4)c3cnn(CC(F)(F)F)c3n2)cc1)Nc1cccnc1 [Example 344, 1-(4-{4-[(1R,4R)-2-oxa-5-azabicyclo[2.2.1]hept-5-yl]-1-(2,2,2-trifluoroethyl)-1H-pyrazolo[3,4-d]pyrimidin-6-yl}phenyl)-3-pyridin-3-ylurea] | 17 | 660 | 1940 | > 10000 | 1000 |
| CN1CCN(c2ccc(NC(=O)Nc3ccc(-c4nc(N5C[C@H]6C[C@@H]5CO6)c5cnn(CC(F)(F)F)c5n4)cc3)cc2)CC1 [Example 345, 1-[4-(4-methylpiperazin-1-yl)phenyl]-3-(4-{4-[(1R,4R)-2-oxa-5-azabicyclo[2.2.1]hept-5-yl]-1-(2,2,2-trifluoroethyl)-1H-pyrazolo[3,4-d]pyrimidin-6-yl}phenyl)urea] | 38.5 | 190 | 1920 | > 10000 | 450 |

Now from value to compound, other results behind:

| IC50 [1] [nM] | IC50 [2] [nM] | IC50 [3] [nM] | IC50 [4] [nM] | Compound | IC50 [5] [nM] |
| --- | --- | --- | --- | --- | --- |
| 0.58 | 68 | 276 | 4590 | CNC(=O)Nc1ccc(-c2nc(N3CC4CCC(C3)O4)c3cnn(C4CCC(NN(C)C)CC4)c3n2)cc1 (stereo not shown) [Example 333, 1-(4-{1-[4-(2,2-dimethylhydrazino)cyclohexyl]-4-(8-oxa-3-azabicyclo[3.2.1]oct-3-yl)-1H-pyrazolo[3,4-d]pyrimidin-6-yl}phenyl)-3-methylurea] | 380 |
| 4.5 | 2960 | 434 | 3940 | CNC(=O)Nc1ccc(-c2nc(N3CC4CCC(C3)O4)c3cnn(C4CCC(NCCO)CC4)c3n2)cc1 (stereo not shown) [Example 334, 1-{4-[1-{4-[(2-hydroxyethyl)amino]cyclohexyl}-4-(8-oxa-3-azabicyclo[3.2.1]oct-3-yl)-1H-pyrazolo[3,4-d]pyrimidin-6-yl]phenyl}-3-methylurea] | 5200 |
| 2.35 | 28 | 273 | 4480 | COCC(COC)n1ncc2c(N3CC4CCC(C3)O4)nc(-c3ccc(NC(=O)Nc4ccc(N5CCNCC5)cc4)cc3)nc21 [Example 335, 1-(4-{1-[2-methoxy-1-(methoxymethyl)ethyl]-4-(8-oxa-3-azabicyclo[3.2.1]oct-3-yl)-1H-pyrazolo[3,4-d]pyrimidin-6-yl}phenyl)-3-(4-piperazin-1-ylphenyl)urea] | 210 |
| 10.9 | 290 | 448 | 372 | CCn1nc(N2CCCC2)c2c(N3CC4CCC(C3)O4)nc(-c3ccc(NC(=O)Nc4cccnc4)cc3)nc21 [Example 346, 1-{4-[1-ethyl-4-(8-oxa-3-azabicyclo[3.2.1]oct-3-yl)-3-pyrrolidin-1-yl-1H-pyrazolo[3,4-d]pyrimidin-6-yl]phenyl}-3-pyridin-3-ylurea] | 950 |
| 5.6 | 310 | 1100 | 7130 | CCn1nc(N2CCCC2)c2c(N3CC4CCC(C3)O4)nc(-c3ccc(NC(=O)NC)cc3)nc21 [Example 347, 1-{4-[1-ethyl-4-(8-oxa-3-azabicyclo[3.2.1]oct-3-yl)-3-pyrrolidin-1-yl-1H-pyrazolo[3,4-d]pyrimidin-6-yl]phenyl}-3-methylurea] | 1300 |
| 7.5 | 280 | 1010 | 8590 | CCn1nc(N2CCN(C)CC2)c2c(N3CC4CCC(C3)O4)nc(-c3ccc(NC(=O)NC)cc3)nc21 [Example 348, 1-{4-[1-ethyl-3-(4-methylpiperazin-1-yl)-4-(8-oxa-3-azabicyclo[3.2.1]oct-3-yl)-1H-pyrazolo[3,4-d]pyrimidin-6-yl]phenyl}-3-methylurea] | 1000 |
| 8.9 | 210 | 596 | 4960 | CCn1nc(-c2cccnc2)c2c(N3CC4CCC(C3)O4)nc(-c3ccc(NC(=O)NC)cc3)nc21 [Example 349, 1-{4-[1-ethyl-4-(8-oxa-3-azabicyclo[3.2.1]oct-3-yl)-3-pyridin-3-yl-1H-pyrazolo[3,4-d]pyrimidin-6-yl]phenyl}-3-methylurea] | 800 |
| 1.95 | 130 | 565 | 6580 | C=Cc1nn(CC)c2nc(-c3ccc(NC(=O)NC)cc3)nc(N3CC4CCC(C3)O4)c12 [Example 350, 1-{4-[1-ethyl-4-(8-oxa-3-azabicyclo[3.2.1]oct-3-yl)-3-vinyl-1H-pyrazolo[3,4-d]pyrimidin-6-yl]phenyl}-3-methylurea] | 480 |
| 9 | 1050 | 2460 | > 10000 | CCn1nc(C(O)CO)c2c(N3CC4CCC(C3)O4)nc(-c3ccc(NC(=O)NC)cc3)nc21 (stereo not shown) [Example 351, 1-{4-[3-(1,2-dihydroxyethyl)-1-ethyl-4-(8-oxa-3-azabicyclo[3.2.1]oct-3-yl)-1H-pyrazolo[3,4-d]pyrimidin-6-yl]phenyl}-3-methylurea] | 1600 |
| 17.5 | 200 | 1080 | 6100 | CCn1nc(C=O)c2c(N3CC4CCC(C3)O4)nc(-c3ccc(NC(=O)NC)cc3)nc21 [Example 352, 1-{4-[1-ethyl-3-formyl-4-(8-oxa-3-azabicyclo[3.2.1]oct-3-yl)-1H-pyrazolo[3,4-d]pyrimidin-6-yl]phenyl}-3-methylurea] | 700 |
